Percent effect (mortality or growth inhibition), inhibition and mortality data for 21 molecules are collected here from US20260206751A1, “NOVEL BICYCLIC-CARBOXAMIDE COMPOUNDS USEFUL AS PESTICIDES” (SYNGENTA CROP PROTECTION AG, priority 2022, published 2026).

One may read the inhibition as the drop in the measured response relative to a control, in per cent. A word on the mortality: it is the percentage killed.

Common to all, as to assay type: in vivo
In assay [1] the test system is Euschistus heros (Neotropical Brown Stink Bug). The experiment in a line: Euschistus heros (neotropical brown stink bug) feeding/contact activity. The settings on record: 120 h, application rate 200 ppm, sprayed soybean leaves, N2 nymphs, 5 days after infestation, read-out: effect in at least one of the two categories (mortality or growth inhibition). The protocol:
Example B2: Euschistus heros (Neotropical Brown Stink Bug) Feeding/Contact Activity
Soybean leaves on agar in 24-well microtiter plates were sprayed with aqueous test solutions prepared from 10,000 ppm DMSO stock solutions. After drying the leaves were infested with N2 nymphs. The samples were assessed for mortality and growth inhibition in comparison to untreated samples 5 days after infestation.

Assay [2] concerns Myzus persicae (Green Peach Aphid). Put plainly: Myzus persicae (green peach aphid) feeding/contact activity, eggplant leaf discs. The settings on record: foliar, 144 h, application rate 200 ppm, sprayed eggplant leaf discs, aphid population of mixed ages, 6 days after infestation, read-out: growth inhibition. The protocol:
Example B6: Myzus persicae (Green Peach Aphid) Feeding/Contact Activity Eggplant leaf discs were placed onto agar in a 24-well microtiter plate and sprayed with aqueous test solutions prepared from 10,000 ppm DMSO stock solutions. After drying, the leaf discs were infested with an aphid population of mixed ages. The samples were assessed for mortality 6 days after infestation.

The subject of assay [3] is Plutella xylostella (Diamond Back Moth). The experiment in a line: Plutella xylostella (diamond back moth) feeding/contact activity. The settings on record: 192 h, application rate 200 ppm, artificial diet, Plutella eggs, 8 days after infestation, read-out: effect in at least one of the two categories (mortality or growth inhibition). On the procedure: Example B7: Plutella xylostella (Diamond Back Moth) Feeding/Contact Activity
24-well microtiter plates with artificial diet were treated with aqueous test solutions prepared from 10,000 ppm DMSO stock solutions by pipetting. After drying, Plutella eggs were pipetted through a plastic stencil onto a gel blotting paper and the plate was closed with it. The samples were assessed for mortality and growth inhibition in comparison to untreated samples 8 days after infestation.

Assay [4] concerns Myzus persicae (Green Peach Aphid). Put plainly: Myzus persicae (green peach aphid) intrinsic activity. The conditions noted are these: 120 h, test rate 12 ppm, mixed with sucrose solution, Parafilm, infested pea seedlings, 5 days after infestation. The text has this: Example B5: Myzus persicae (Green Peach Aphid). Intrinsic Activity
Test compounds prepared from 10,000 ppm DMSO stock solutions were applied by pipette into 24-well microtiter plates and mixed with sucrose solution. The plates were closed with a stretched Parafilm. A plastic stencil with 24 holes was placed onto the plate and infested pea seedlings were placed directly on the Parafilm. The infested plate was closed with a gel blotting paper and another plastic stencil and then turned upside down. The samples were assessed for mortality 5 days after infestation.

Assay [5] shares this test system. Put plainly: Myzus persicae (green peach aphid) feeding/contact activity, sunflower leaf discs. The settings on record: foliar, 144 h, application rate 200 ppm, sprayed sunflower leaf discs, aphid population of mixed ages, 6 days after infestation. The protocol:
Example B4: Myzus persicae (Green Peach Aphid):Feeding/Contact Activity
Sunflower leaf discs were placed onto agar in a 24-well microtiter plate and sprayed with aqueous test solutions prepared from 10,000 ppm DMSO stock solutions. After drying, the leaf discs were infested with an aphid population of mixed ages. The samples were assessed for mortality 6 days after infestation.

Assay [6] deals with Diabrotica balteata (Corn Root Worm). Put plainly: Diabrotica balteata (corn root worm) feeding/contact activity. The settings on record: 96 h, application rate 200 ppm, sprayed maize sprouts, L2 larvae, 4 days after infestation, read-out: effect in at least one of the two categories (mortality or growth inhibition). The protocol: Example B1: Diabrotica balteata (Corn Root Worm) Feeding/Contact Activity
Maize sprouts placed onto an agar layer in 24-well microtiter plates were treated with aqueous test solutions prepared from 10,000 ppm DMSO stock solutions by spraying. After drying, the plates were infested with L2 larvae (6 to 10 per well). The samples were assessed for mortality and growth inhibition in comparison to untreated samples 4 days after infestation.

The test system of assay [7] is Frankliniella occidentalis (Western Flower Thrips). Put plainly: Frankliniella occidentalis (western flower thrips) feeding/contact activity. The conditions noted are these: foliar, 168 h, application rate 200 ppm, sprayed sunflower leaf discs, population of mixed ages, 7 days after infestation. The protocol:
Example B3: Frankliniella occidentalis (Western Flower Thrips): Feeding/Contact Activity
Sunflower leaf discs were placed on agar in 24-well microtiter plates and sprayed with aqueous test solutions prepared from 10,000 DMSO stock solutions. After drying the leaf discs were infested with a Frankliniella population of mixed ages. The samples were assessed for mortality 7 days after infestation.

The test system of assay [8] is Spodoptera littoralis (Egyptian Cotton Leaf Worm). Put plainly: Spodoptera littoralis (Egyptian cotton leaf worm) feeding/contact activity. The settings on record: foliar, 72 h, application rate 200 ppm, sprayed cotton leaf discs, L1 larvae, 3 days after infestation, read-out: control (mortality, anti-feeding effect, growth inhibition). On the procedure: Example B8: Spodoptera littoralis (Egyptian Cotton Leaf Worm) Feeding/Contact Activity
Cotton leaf discs were placed onto agar in 24-well microtiter plates and sprayed with aqueous test solutions prepared from 10,000 ppm DMSO stock solutions. After drying the leaf discs were infested with five L1 larvae. The samples were assessed for mortality, anti-feeding effect, and growth inhibition in comparison to untreated samples 3 days after infestation. Control of Spodoptera littoralis by a test sample is given when at least one of the categories mortality, anti-feedant effect, and growth inhibition is higher than the untreated sample.

Take `C[C@@H](COc1cc2c(c(C(=O)NC3CC3)c1)CCC2)NS(=O)(=O)C(F)(F)F` [P-33, N-cyclopropyl-6-[(2S)-2-(trifluoromethylsulfonylamino)propoxy]indane-4-carboxamide]: the percent effect (mortality or growth inhibition) at 200 ppm in assay [1] was at least 80%. For the same molecule, the inhibition at 200 ppm in assay [2] is at least 80%.

Take `C[C@@H](COc1cc2c(c(C(=O)NCC(F)(F)F)c1)CCCC2)NS(=O)(=O)C(F)(F)F` [P-15, N-(2,2,2-trifluoroethyl)-7-[(2S)-2-(trifluoromethylsulfonylamino)propoxy]tetralin-5-carboxamide]: in assay [3], the percent effect (mortality or growth inhibition) at 200 ppm is at least 80%.

For `C[C@@H](COc1cc2c(c(C(=O)NC3(C#N)CCC3)c1)CCCC2)NS(=O)(=O)C(F)(F)F` [P-11, N-(1-cyanocyclobutyl)-7-[(2S)-2-(trifluoromethylsulfonylamino)propoxy]tetralin-5-carboxamide], in assay [4], the mortality at 12 ppm is at least 80%.

`COC(=O)C1(NC(=O)c2cc(OC[C@H](C)NS(=O)(=O)C(F)(F)F)c(C)c3c2CCC3)CC1` [P-4, methyl 1-[7-methyl-6-[(2S)-2-(trifluoromethylsulfonylamino)propoxy]indane-4-carbonyl]amino] cyclopropanecarboxylate] yielded a mortality at 200 ppm in assay [5] of at least 80%. In addition, in assay [3], the percent effect (mortality or growth inhibition) at 200 ppm was at least 80%.

`Cc1c(OC[C@H](C)NS(=O)(=O)C(F)(F)F)cc(C(=O)NC2CC2)c2c1CCC2` [P-3]: the percent effect (mortality or growth inhibition) at 200 ppm in assay [6], in assay [1] and in assay [3] was at least 80% throughout. Further, the mortality at 200 ppm in assay [7] and in assay [5] was at least 80% throughout. In assay [4], the mortality at 12 ppm was at least 80%.

Consider `C[C@@H](COc1cc2c(c(C(=O)Nc3ccc(F)cc3F)c1)CCCC2)NS(=O)(=O)C(F)(F)F` [P-22, N-(2,4-difluorophenyl)-7-[(2S)-2-(trifluoromethylsulfonylamino)propoxy]tetralin-5-carboxamide], for which the mortality at 200 ppm in assay [8] is at least 80%.

As for `Cc1c(OC[C@H](C)NS(=O)(=O)C(F)(F)F)cc(C(=O)NC2(C#N)CC2)c2c1CCC2` [P-7, N-(1-cyanocyclopropyl)-7-methyl-6-[(2S)-2-(trifluoromethylsulfonylamino)propoxy]indane-4-carboxamide], the mortality at 200 ppm in assay [7] and in assay [5] was at least 80% each time. In assay [4], this molecule came in with a mortality at 12 ppm of at least 80%.

Take `Cc1c(OC[C@H](C)NS(=O)(=O)C(F)(F)F)cc(C(N)=O)c2c1CCC2` [P-1, 7-methyl-6-[(2S)-2-(trifluoromethylsulfonylamino)propoxy]indane-4-carboxamide]: the mortality at 200 ppm in assay [5] was at least 80%.

With `C[C@@H](COc1cc2c(c(C(N)=O)c1)CCCC2)NS(=O)(=O)C(F)(F)F` [P-30, 7-[(2S)-2-(trifluoromethylsulfonylamino)propoxy]tetralin-5-carboxamide], in assay [2], the inhibition at 200 ppm is at least 80%.

In assay [5], `C[C@@H](COc1cc2c(c(C(=O)NC3CC3)c1)CCCC2)NS(=O)(=O)C(F)(F)F` [P-9, N-cyclopropyl-7-[(2S)-2-(trifluoromethylsulfonylamino)propoxy]tetralin-5-carboxamide] displayed a mortality at 200 ppm of at least 80%. The molecule also had a mortality at 12 ppm in assay [4] of at least 80%. Also, the percent effect (mortality or growth inhibition) at 200 ppm in assay [3] was at least 80%.

In assay [7], `C[C@@H](COc1cc2c(c(C(=O)NCc3ncccn3)c1)CCCC2)NS(=O)(=O)C(F)(F)F` [P-23, N-(pyrimidin-2-ylmethyl)-7-[(2S)-2-(trifluoromethylsulfonylamino)propoxy]tetralin-5-carboxamide] gave a mortality at 200 ppm of at least 80%.

The molecule `Cc1c(OC[C@H](C)NS(=O)(=O)C(F)(F)F)cc(C(=O)NC23CC(C2)C3)c2c1CCC2` [P-41, N-(1-bicyclo[1.1.1]pentanyl)-7-methyl-6-[(2S)-2-(trifluoromethylsulfonylamino)propoxy]indane-4-carboxamide] had a mortality at 12 ppm in assay [4] of at least 80%. Also, the percent effect (mortality or growth inhibition) at 200 ppm in assay [3] is at least 80%.

As for `CCN1OC[C@@H](NC(=O)c2cc(OC[C@H](C)NS(=O)(=O)C(F)(F)F)c(C)c3c2CCC3)C1=O` [P-2, N-[(4R)-2-ethyl-3-oxo-isoxazolidin-4-yl]-7-methyl-6-[(2S)-2-(trifluoromethylsulfonylamino)propoxy]indane-4-carboxamide], the mortality at 200 ppm in assay [5] was at least 80%.

Take `Cc1c(OC[C@H](C)NS(=O)(=O)C(F)(F)F)cc(C(=O)NC2CON(CC(F)(F)F)C2=O)c2c1CCC2` (stereo partly drawn) [P-40, 7-methyl-N-[3-oxo-2-(2,2,2-trifluoroethyl)isoxazolidin-4-yl]-6-[(2S)-2-(trifluoromethylsulfonylamino)propoxy]indane-4-carboxamide]: the mortality at 12 ppm in assay [4] is at least 80%. For the same molecule, in assay [3], the percent effect (mortality or growth inhibition) at 200 ppm is at least 80%.

Take `C[C@@H](COc1cc2c(c(C(=O)NC34CC(C3)C4)c1)CCCC2)NS(=O)(=O)C(F)(F)F` [P-32, N-(1-bicyclo[1.1.1]pentanyl)-7-[(2S)-2-(trifluoromethylsulfonylamino)propoxy]tetralin-5-carboxamide]: the mortality at 12 ppm in assay [4] was at least 80%. Moreover, the percent effect (mortality or growth inhibition) at 200 ppm in assay [3] is at least 80%.

For `Cc1cc(F)ccc1NC(=O)c1cc(OC[C@H](C)NS(=O)(=O)C(F)(F)F)c(C)c2c1CCC2` [P-42, N-(4-fluoro-2-methyl-phenyl)-7-methyl-6-[(2S)-2-(trifluoromethylsulfonylamino)propoxy]indane-4-carboxamide], the mortality at 12 ppm in assay [4] is at least 80%.

On to `Cc1c(OC[C@H](C)NS(=O)(=O)C(F)(F)F)cc(C(=O)NC2(C(=O)O)CC2)c2c1CCC2` [P-5], for which the mortality at 200 ppm in assay [5] was at least 80%.

In the case of `CO/N=C/NC(=O)c1cc(OC[C@H](C)NS(=O)(=O)C(F)(F)F)c(C)c2c1CCC2` [P-6, N-[(E)-methoxyiminomethyl]-7-methyl-6-[(2S)-2-(trifluoromethylsulfonylamino)propoxy]indane-4-carboxamide], the mortality at 200 ppm in assay [5] was at least 80%.

`C[C@@H](COc1cc2c(c(C(=O)NC3(C#N)CC3)c1)CCCC2)NS(=O)(=O)C(F)(F)F` [P-8, N-(1-cyanocyclopropyl)-7-[(2S)-2-(trifluoromethylsulfonylamino)propoxy]tetralin-5-carboxamide]: the mortality at 200 ppm in assay [5] was at least 80%. In addition, the mortality at 12 ppm in assay [4] was at least 80%. Also, the percent effect (mortality or growth inhibition) at 200 ppm in assay [3] was at least 80%.

Turning to `Cc1c(OC[C@H](C)NS(=O)(=O)C(F)(F)F)cc(C(=O)NCC(F)(F)F)c2c1CCC2` [P-39, 7-methyl-N-(2,2,2-trifluoroethyl)-6-[(2S)-2-(trifluoromethylsulfonylamino)propoxy]indane-4-carboxamide], the percent effect (mortality or growth inhibition) at 200 ppm in assay [3] is at least 80%.

`Cc1cc(F)ccc1NC(=O)c1cc(OC[C@H](C)NS(=O)(=O)C(F)(F)F)cc2c1CCCC2` [P-28, N-(4-fluoro-2-methyl-phenyl)-7-[(2S)-2-(trifluoromethylsulfonylamino)propoxy]tetralin-5-carboxamide]: the percent effect (mortality or growth inhibition) at 200 ppm in assay [3] is at least 80%.
